US20110269130A1, “Antibiotice Susceptibility Profiling Methods” (priority 2008, published 2011)

What was measured:
[1] = test system: S. aureus ATCC 29213 (wild type); assay: PNA-FISH antibiotic susceptibility test, wild type S. aureus; type: cell-based; settings: OX 2 μg/mL and higher (2, 4, 8 μg), 6 hr incubation in Phoenix AST broth, 10^5 CFU/ml, PNA-FISH fluorescence imaging
Protocol: (§1) S. aureus ATCC 29213 and S. aureus POS 3663 cultures with a concentration of 10^5CFU/ml were divided into six 400 μl subsamples and incubated with or without OX antibiotic for 0 or 6 hours in Phoenix AST broth as indicated in the following table.
(§2) Each subsample was placed into separate 1.5 mL microcentrifuge tubes following incubation. The tubes were centrifuged at 5000 rpm for 3 minutes and the supernatants were discarded. The bacteria were resuspended in […] of 80% ethanol and incubated for 5 minutes at room temperature and then centrifuged at 5000 rpm for 3 minutes. The supernatants were discarded and the bacteria were resuspended in one drop (approximately 25 μL) of the S. aureus-specific PNA-probe solution from the PNA FISH Kit and incubated for 1.5 hours at 55° C. After hybridization, 500 μL of the washing solution from the PNA FISH Kit was added and the tubes were incubated at 55° C. for 30 minutes. The tubes were centrifuged 10,000 rpm for 3 minutes and the supernatants were discarded. The bacterial pellets were resuspended in 150 μL PBS, and 40 μL of each subsample was transferred onto a 0.2 μm pore-size polycarbonate membrane using a flow-through device. The membrane was then transferred to a glass slide and covered with a cover slip. The membrane was then imaged using a fluorescence microscope.

[2] = test system: S. aureus POS 3663 (MRSA); assay: PNA-FISH antibiotic susceptibility test, MRSA; type: cell-based; settings: OX at concentrations as high as 8 μg/mL, 6 hr incubation in Phoenix AST broth, 10^5 CFU/ml, PNA-FISH fluorescence imaging
Protocol: as §1, §2

Cc1onc(-c2ccccc2)c1C(=O)N[C@@H]1C(=O)N2[C@@H]1SC(C)(C)[C@@H]2C(=O)O [oxacillin]
effect of oxacillin (OX) on the growth of wild type S. aureus ATCC 29213 [1]: killed the bacteria
effect of oxacillin (OX) on the growth of wild type S. aureus ATCC 29213 ([1]; listed as OX): most of the wild type S. aureus were killed
effect of oxacillin (OX) on the growth of resistant S. aureus POS 3663 [2]: had no effect on the growth
effect of oxacillin (OX) on the growth of resistant S. aureus POS 3663 ([2]; listed as OX): continues to grow
